From PMC6979384, “Characterization of the plant homeodomain (PHD) reader family for their histone tail interactions” (Epigenetics & Chromatin, 2020)
Blank lines part the entries; values can stand above or below the substance they belong to. Where no end group is shown, it is not given here.

What was measured:
Assay in all cases: Histone peptide microarray
Type in all cases: binding, human
KDM4C (TTP) = settings: arrays performed twice; for Array Heatmap value (peptide array binding signal): KDM4C (TTP), GST-tagged, n of 4
Summary of the method: (§1)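 A peptide microarray holding 293 synthetic histone peptides with individual or combinatorial modifications was probed with each GST-PHD protein at 0.5 μM. Values represent mean intensity (±SD) from four replicates.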

ING4 = settings: arrays performed twice; for Array Heatmap value (peptide array binding signal): ING4, GST-tagged, n of 4
Summary of the method: as §1

MORC3 (CW) = settings: arrays performed twice; for Array Heatmap value (peptide array binding signal): MORC3 (CW), GST-tagged, n of 4
Summary of the method: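 GST-PHD reader, 0.5 μM, probed on 293-peptide histone array (single/combinatorial PTMs); optimized array protocol; signal = mean ± SD, n = 4.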

TAF3 = settings: arrays performed twice; for Array Heatmap value (peptide array binding signal): TAF3, GST-tagged, n of 4
Summary of the method: as §1

RAG2 = settings: arrays performed twice; for Array Heatmap value (peptide array binding signal): RAG2, GST-tagged, n of 4
Summary of the method: as §1

ING2 = settings: arrays performed twice; for Array Heatmap value (peptide array binding signal): ING2, GST-tagged, n of 4
Summary of the method: as §1

PHF2 = settings: arrays performed twice; for Array Heatmap value (peptide array binding signal): PHF2, GST-tagged, n of 4
Summary of the method: as §1

TRIM66 (PB) = settings: arrays performed twice; for Array Heatmap value (peptide array binding signal): TRIM66 (PB), GST-tagged, n of 4
Summary of the method: as §1

DIDO1 = settings: arrays performed twice; for Array Heatmap value (peptide array binding signal): DIDO1, GST-tagged, n of 4
Summary of the method: as §1

KDM7A = settings: arrays performed twice; for Array Heatmap value (peptide array binding signal): KDM7A, GST-tagged, n of 4
Summary of the method: as §1

CHD4 (PPCC) = settings: arrays performed twice; for Array Heatmap value (peptide array binding signal): CHD4 (PPCC), GST-tagged, n of 4
Summary of the method: as §1

MLL5 = settings: arrays performed twice; for Array Heatmap value (peptide array binding signal): MLL5, GST-tagged, n of 4
Summary of the method: as §1

ING3 = settings: arrays performed twice; for Array Heatmap value (peptide array binding signal): ING3, GST-tagged, n of 4
Summary of the method: as §1

AIRE (PP) = settings: arrays performed twice; for Array Heatmap value (peptide array binding signal): AIRE (PP), GST-tagged, n of 4
Summary of the method: as §1

ING1 = settings: arrays performed twice; for Array Heatmap value (peptide array binding signal): ING1, GST-tagged, n of 4
Summary of the method: as §1

CHD5 (PPCC) = settings: arrays performed twice; for Array Heatmap value (peptide array binding signal): CHD5 (PPCC), GST-tagged, n of 4
Summary of the method: as §1

KDM5A (3) = settings: arrays performed twice; for Array Heatmap value (peptide array binding signal): KDM5A (3), GST-tagged, n of 4
Summary of the method: as §1

KDM5B (1) = settings: arrays performed twice; for Array Heatmap value (peptide array binding signal): KDM5B (1), GST-tagged, n of 4
Summary of the method: as §1

SP140L = settings: arrays performed twice; for Array Heatmap value (peptide array binding signal): SP140L, GST-tagged, n of 4
Summary of the method: as §1

ING5 = settings: arrays performed twice; for Array Heatmap value (peptide array binding signal): ING5, GST-tagged, n of 4
Summary of the method: as §1

DPF2 (PPC2W2) = settings: arrays performed twice; for Array Heatmap value (peptide array binding signal): DPF2 (PPC2W2), GST-tagged, n of 4
Summary of the method: as §1

BAZ2B = settings: arrays performed twice; for Array Heatmap value (peptide array binding signal): BAZ2B, GST-tagged, n of 4
Summary of the method: as §1

PHF21A = settings: arrays performed twice; for Array Heatmap value (peptide array binding signal): PHF21A, GST-tagged, n of 4
Summary of the method: as §1

KDM5A (1) = settings: arrays performed twice; for Array Heatmap value (peptide array binding signal): KDM5A (1), GST-tagged, n of 4
Summary of the method: as §1

PHRF1 (RP) = settings: arrays performed twice; for Array Heatmap value (peptide array binding signal): PHRF1 (RP), GST-tagged, n of 4
Summary of the method: as §1

BPTF (PB) = settings: arrays performed twice; for Array Heatmap value (peptide array binding signal): BPTF (PB), GST-tagged, n of 4
Summary of the method: as §1

PHF8 = settings: arrays performed twice; for Array Heatmap value (peptide array binding signal): PHF8, GST-tagged, n of 4
Summary of the method: as §1

CHD5 (PCC) = settings: arrays performed twice; for Array Heatmap value (peptide array binding signal): CHD5 (PCC), GST-tagged, n of 4
Summary of the method: as §1

KDM5B (3) = settings: arrays performed twice; for Array Heatmap value (peptide array binding signal): KDM5B (3), GST-tagged, n of 4
Summary of the method: as §1

PHF23 = settings: arrays performed twice; for Array Heatmap value (peptide array binding signal): PHF23, GST-tagged, n of 4
Summary of the method: as §1

PHF13 = settings: arrays performed twice; for Array Heatmap value (peptide array binding signal): PHF13, GST-tagged, n of 4
Summary of the method: as §1

- Array Heatmap value (peptide array binding signal) (KDM4C (TTP)): 0.482
- Array Heatmap value (peptide array binding signal) (ING4): 0.4701
- Array Heatmap value (peptide array binding signal) (MORC3 (CW)): 0.3825
- Array Heatmap value (peptide array binding signal) (TAF3): 0.2772
- Array Heatmap value (peptide array binding signal) (RAG2): 0.2578
- Array Heatmap value (peptide array binding signal) (ING2): 0.637
- Array Heatmap value (peptide array binding signal) (PHF2): 0.5405
- Array Heatmap value (peptide array binding signal) (TRIM66 (PB)): 0.5817
- Array Heatmap value (peptide array binding signal) (DIDO1): 0.6879
- Array Heatmap value (peptide array binding signal) (KDM7A): 0.3485
- Array Heatmap value (peptide array binding signal) (CHD4 (PPCC)): 0.5705
- Array Heatmap value (peptide array binding signal) (MLL5): 0.5622
- Array Heatmap value (peptide array binding signal) (ING3): 0.4835
- Array Heatmap value (peptide array binding signal) (AIRE (PP)): 0.4141
- Array Heatmap value (peptide array binding signal) (ING1): 0.5436
- Array Heatmap value (peptide array binding signal) (CHD5 (PPCC)): 0.5556
- Array Heatmap value (peptide array binding signal) (KDM5A (3)): 0.4688
- Array Heatmap value (peptide array binding signal) (KDM5B (1)): 0.6467
- Array Heatmap value (peptide array binding signal) (SP140L): 0.3575
- Array Heatmap value (peptide array binding signal) (ING5): 0.3689
- Array Heatmap value (peptide array binding signal) (DPF2 (PPC2W2)): 0.6298
- Array Heatmap value (peptide array binding signal) (BAZ2B): 0.4646
- Array Heatmap value (peptide array binding signal) (PHF21A): 0.4543
- Array Heatmap value (peptide array binding signal) (KDM5A (1)): 0.4698
- Array Heatmap value (peptide array binding signal) (PHRF1 (RP)): 0.4299
- Array Heatmap value (peptide array binding signal) (BPTF (PB)): 0.3564
- Array Heatmap value (peptide array binding signal) (PHF8): 0.3633
- Array Heatmap value (peptide array binding signal) (CHD5 (PCC)): 0.7486
- Array Heatmap value (peptide array binding signal) (KDM5B (3)): 0.4626
- Array Heatmap value (peptide array binding signal) (PHF23): 0.5508
- Array Heatmap value (peptide array binding signal) (PHF13): 0.6322
Substance: H3K36me2 (21-44): H3 21-44

- Array Heatmap value (peptide array binding signal) (KDM4C (TTP)): 0.4879
- Array Heatmap value (peptide array binding signal) (ING4): 0.4583
- Array Heatmap value (peptide array binding signal) (MORC3 (CW)): 0.351
- Array Heatmap value (peptide array binding signal) (TAF3): 0.2673
- Array Heatmap value (peptide array binding signal) (RAG2): 0.2418
- Array Heatmap value (peptide array binding signal) (ING2): 0.6072
- Array Heatmap value (peptide array binding signal) (PHF2): 0.5258
- Array Heatmap value (peptide array binding signal) (TRIM66 (PB)): 0.6062
- Array Heatmap value (peptide array binding signal) (DIDO1): 0.7273
- Array Heatmap value (peptide array binding signal) (KDM7A): 0.3622
- Array Heatmap value (peptide array binding signal) (CHD4 (PPCC)): 0.5871
- Array Heatmap value (peptide array binding signal) (MLL5): 0.5803
- Array Heatmap value (peptide array binding signal) (ING3): 0.4991
- Array Heatmap value (peptide array binding signal) (AIRE (PP)): 0.4385
- Array Heatmap value (peptide array binding signal) (ING1): 0.5613
- Array Heatmap value (peptide array binding signal) (CHD5 (PPCC)): 0.5621
- Array Heatmap value (peptide array binding signal) (KDM5A (3)): 0.4295
- Array Heatmap value (peptide array binding signal) (KDM5B (1)): 0.6524
- Array Heatmap value (peptide array binding signal) (SP140L): 0.3526
- Array Heatmap value (peptide array binding signal) (ING5): 0.3678
- Array Heatmap value (peptide array binding signal) (DPF2 (PPC2W2)): 0.6719
- Array Heatmap value (peptide array binding signal) (BAZ2B): 0.4726
- Array Heatmap value (peptide array binding signal) (PHF21A): 0.4681
- Array Heatmap value (peptide array binding signal) (KDM5A (1)): 0.4698
- Array Heatmap value (peptide array binding signal) (PHRF1 (RP)): 0.4375
- Array Heatmap value (peptide array binding signal) (BPTF (PB)): 0.352
- Array Heatmap value (peptide array binding signal) (PHF8): 0.3546
- Array Heatmap value (peptide array binding signal) (CHD5 (PCC)): 0.7751
- Array Heatmap value (peptide array binding signal) (KDM5B (3)): 0.4778
- Array Heatmap value (peptide array binding signal) (PHF23): 0.5628
- Array Heatmap value (peptide array binding signal) (PHF13): 0.6462
Substance: H3K36me3 (21-44): H3 21-44

Substance: H3K56ac (52-61): H3 52-61 (RRYQK(Ac)STELL; UniProt P68431 53-62, looked up, fragment)
- Array Heatmap signal, KDM4C (TTP) (KDM4C (TTP); sheet "Array Heatmap", GST-tagged KDM4C (TTP), total replicate number n = 4): 0.4844
- Array Heatmap signal, ING4 (ING4; sheet "Array Heatmap", GST-tagged ING4, total replicate number n = 4): 0.4689
- Array Heatmap signal, MORC3 (CW) (MORC3 (CW); sheet "Array Heatmap", GST-tagged MORC3 (CW), total replicate number n = 4): 0.3491
- Array Heatmap signal, TAF3 (TAF3; sheet "Array Heatmap", GST-tagged TAF3, total replicate number n = 4): 0.2638
- Array Heatmap signal, RAG2 (RAG2; sheet "Array Heatmap", GST-tagged RAG2, total replicate number n = 4): 0.2388
- Array Heatmap signal, ING2 (ING2; sheet "Array Heatmap", GST-tagged ING2, total replicate number n = 4): 0.6013
- Array Heatmap signal, PHF2 (PHF2; sheet "Array Heatmap", GST-tagged PHF2, total replicate number n = 4): 0.5355
- Array Heatmap signal, TRIM66 (PB) (TRIM66 (PB); sheet "Array Heatmap", GST-tagged TRIM66 (PB), total replicate number n = 4): 0.5346
- Array Heatmap signal, DIDO1 (DIDO1; sheet "Array Heatmap", GST-tagged DIDO1, total replicate number n = 4): 0.7019
- Array Heatmap signal, KDM7A (KDM7A; sheet "Array Heatmap", GST-tagged KDM7A, total replicate number n = 4): 0.3406
- Array Heatmap signal, CHD4 (PPCC) (CHD4 (PPCC); sheet "Array Heatmap", GST-tagged CHD4 (PPCC), total replicate number n = 4): 0.5636
- Array Heatmap signal, MLL5 (MLL5; sheet "Array Heatmap", GST-tagged MLL5, total replicate number n = 4): 0.5378
- Array Heatmap signal, ING3 (ING3; sheet "Array Heatmap", GST-tagged ING3, total replicate number n = 4): 0.475
- Array Heatmap signal, AIRE (PP) (AIRE (PP); sheet "Array Heatmap", GST-tagged AIRE (PP), total replicate number n = 4): 0.4476
- Array Heatmap signal, ING1 (ING1; sheet "Array Heatmap", GST-tagged ING1, total replicate number n = 4): 0.5577
- Array Heatmap signal, CHD5 (PPCC) (CHD5 (PPCC); sheet "Array Heatmap", GST-tagged CHD5 (PPCC), total replicate number n = 4): 0.5505
- Array Heatmap signal, KDM5A (3) (KDM5A (3); sheet "Array Heatmap", GST-tagged KDM5A (3), total replicate number n = 4): 0.4545
- Array Heatmap signal, KDM5B (1) (KDM5B (1); sheet "Array Heatmap", GST-tagged KDM5B (1), total replicate number n = 4): 0.5943
- Array Heatmap signal, SP140L (SP140L; sheet "Array Heatmap", GST-tagged SP140L, total replicate number n = 4): 0.3649
- Array Heatmap signal, ING5 (ING5; sheet "Array Heatmap", GST-tagged ING5, total replicate number n = 4): 0.365
- Array Heatmap signal, DPF2 (PPC2W2) (DPF2 (PPC2W2); sheet "Array Heatmap", GST-tagged DPF2 (PPC2W2), total replicate number n = 4): 0.7093
- Array Heatmap signal, BAZ2B (BAZ2B; sheet "Array Heatmap", GST-tagged BAZ2B, total replicate number n = 4): 0.4578
- Array Heatmap signal, PHF21A (PHF21A; sheet "Array Heatmap", GST-tagged PHF21A, total replicate number n = 4): 0.4604
- Array Heatmap signal, KDM5A (1) (KDM5A (1); sheet "Array Heatmap", GST-tagged KDM5A (1), total replicate number n = 4): 0.4791
- Array Heatmap signal, PHRF1 (RP) (PHRF1 (RP); sheet "Array Heatmap", GST-tagged PHRF1 (RP), total replicate number n = 4): 0.4575
- Array Heatmap signal, BPTF (PB) (BPTF (PB); sheet "Array Heatmap", GST-tagged BPTF (PB), total replicate number n = 4): 0.3515
- Array Heatmap signal, PHF8 (PHF8; sheet "Array Heatmap", GST-tagged PHF8, total replicate number n = 4): 0.3512
- Array Heatmap signal, CHD5 (PCC) (CHD5 (PCC); sheet "Array Heatmap", GST-tagged CHD5 (PCC), total replicate number n = 4): 0.7293
- Array Heatmap signal, KDM5B (3) (KDM5B (3); sheet "Array Heatmap", GST-tagged KDM5B (3), total replicate number n = 4): 0.4628
- Array Heatmap signal, PHF23 (PHF23; sheet "Array Heatmap", GST-tagged PHF23, total replicate number n = 4): 0.5106
- Array Heatmap signal, PHF13 (PHF13; sheet "Array Heatmap", GST-tagged PHF13, total replicate number n = 4): 0.6129
